Data from ChEMBL document CHEMBL5729568, “Ras inhibitors” (2023).

Experiments:
[1] = target: T1, GTPase KRas (Homo sapiens, UniProt P01116); assay: (§1) The purpose of this biochemical assay is to measure the ability of test compounds to covalently label nucleotide-loaded K-Ras isoforms. […] Analysis of raw data may be carried out using Waters MassLynx MS software, with % bound calculated from the deconvoluted protein peaks for labeled and unlabeled K-Ras.
[2] = (§2) Biochemical Assay: A variety of Ras proteins may be inhibited by compounds of the present invention (e.g., K-Ras, N-Ras, H-Ras, and mutants thereof at positions 12, 13 and 61, such as G12C, G12D, G12V, G12S, G13C, G13D, and Q61L, and others described herein). The purpose of this biochemical assay is to measure the ability of test compounds to covalently label nucleotide-loaded K-Ras isoforms. […] The sample is incubated at 25? C. for a time period of up to 24 hours prior to quenching by the addition of 10 uL of 5% Formic Acid. Quenched samples are centrifuged at 15000 rpm for 15 minutes in a benchtop centrifuge before injecting a 10 uL aliquot onto a reverse phase C4 column and eluting into the mass spectrometer with an increasing acetonitrile gradient in the mobile phase. Analysis of raw data may be carried out using Waters MassLynx MS software, with % bound calculated from the deconvoluted protein peaks for labeled and unlabeled K-Ras.
[3] = as §2; remark: listed apart in the source
[4] = as §2; remark: listed apart in the source
[5] = target: T1, GTPase KRas; assay: as §1; remark: listed apart in the source
[6] = as §2; remark: listed apart in the source
[7] = target: GTPase NRas (Homo sapiens, UniProt P01111); assay: as §2
Sequence of GTPase NRas (P01111 whole entry, looked up): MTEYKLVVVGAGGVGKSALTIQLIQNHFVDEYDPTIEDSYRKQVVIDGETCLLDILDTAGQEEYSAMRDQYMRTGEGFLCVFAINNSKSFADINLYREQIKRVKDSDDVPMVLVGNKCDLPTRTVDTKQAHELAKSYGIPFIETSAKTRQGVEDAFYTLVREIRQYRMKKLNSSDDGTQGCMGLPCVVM

[8] = as §2; remark: listed apart in the source
[9] = as §2; remark: listed apart in the source
[10] = as §2; remark: listed apart in the source

Row | IC50 [3] | IC50 [5] | SMILES | other results
1 | in the range around 0.55 µM |  | C=CC(=O)N1CCN(C(=O)N(C)[C@H](C(=O)N[C@H]2Cc3cc(O)cc(c3)-c3ccc4c(c3)c(c(-c3ccccc3CN(C)C)n4CC)CC(C)(C)COC(=O)[C@@H]3CCCN(N3)C2=O)C(C)C)CC1 | IC50 [1]: in the range around 0.55 µM; IC50 [2]: in the range around 0.55 µM; IC50 [4]: in the range around 0.55 µM
2 | in the range around 5.5 µM | in the range around 0.55 µM | C=CC(=O)N1CC[C@H](C(=O)N(C)[C@H](C(=O)N[C@H]2Cc3cc(O)cc(c3)-c3ccc4c(c3)c(c(-c3cncc(CCN(C)C)c3)n4CC)CC(C)(C)COC(=O)[C@@H]3CCCN(N3)C2=O)C(C)C)C1 | 
3 |  | in the range around 5.5 µM | C=CC(=O)N1CC[C@H](C(=O)N(C)[C@H](C(=O)N[C@H]2Cc3cc(O)cc(c3)-c3ccc4c(c3)c(c(-c3ncccc3COC)n4CC)CC(C)(C)COC(=O)[C@@H]3CCCN(N3)C2=O)C(C)C)C1 | IC50 [6]: in the range around 5.5 µM
4 |  | in the range around 5.5 µM | C=CC(=O)N1CC[C@H](C(=O)N(C)[C@H](C(=O)N[C@H]2Cc3cc(O)cc(c3)-c3ccc4c(c3)c(c(-c3nccnc3COC)n4CC)CC(C)(C)COC(=O)[C@@H]3CCCN(N3)C2=O)C(C)C)C1 | IC50 [6]: in the range around 5.5 µM
5 | in the range around 5.5 µM | in the range around 0.55 µM | C=CC(=O)N1CC[C@H](C(=O)N(C)[C@H](C(=O)N[C@H]2Cc3cc(O)cc(c3)-c3ccc4c(c3)c(c(-c3ccc5c(c3)CCN(C)C5)n4CC)CC(C)(C)COC(=O)[C@@H]3CCCN(N3)C2=O)C(C)C)C1 | 
6 |  | in the range around 0.055 µM | C=CC(=O)N1CC[C@H](C(=O)N(C)[C@H](C(=O)N[C@H]2Cc3cc(O)cc(c3)-c3ccc4c(c3)c(c(C3=C(COC)COCC3)n4CC)CC(C)(C)COC(=O)[C@@H]3CCCN(N3)C2=O)C(C)C)C1 | 
7 | in the range around 5.5 µM | in the range around 0.055 µM | C=CC(=O)N1CC(C(=O)N(C)[C@H](C(=O)N[C@H]2Cc3cc(O)cc(c3)-c3ccc4c(c3)c(c(-c3cccnc3COC)n4CC)CC(C)(C)COC(=O)[C@@H]3CCCN(N3)C2=O)C(C)C)C1 | 
8 | in the range around 5.5 µM | in the range around 0.55 µM | C=CC(=O)N1CC[C@H](C(=O)N(C)[C@H](C(=O)N[C@H]2Cc3cc(O)cc(c3)-c3ccc4c(c3)c(c(-c3cccnc3CN(C)C)n4CC)CC(C)(C)COC(=O)[C@@H]3CCCN(N3)C2=O)C(C)C)C1 | 
9 | in the range around 0.55 µM | in the range around 5.5 µM | CCn1c(-c2cccnc2C(C)OC)c2c3cc(ccc31)-c1cccc(c1)C[C@H](NC(=O)[C@H](C(C)C)N(C)C(=O)N1CCC13CN(C(=O)C#CC(C)(C)N(C)C)C3)C(=O)N1CCC[C@H](N1)C(=O)OCC(C)(C)C2 (stereo partly specified) | IC50 [1]: in the range around 0.55 µM; IC50 [2]: in the range around 0.55 µM; IC50 [7]: in the range around 0.55 µM; IC50 [8]: in the range around 0.55 µM; IC50 [9]: in the range around 0.55 µM; IC50 [6]: in the range around 0.055 µM; IC50 [10]: in the range around 0.055 µM; IC50 [4]: in the range around 0.55 µM

More lines, now with the values behind:

Row | SMILES | IC50 [3] | IC50 [5] | other results
10 | CCn1c(-c2cccnc2COC)c2c3cc(ccc31)-c1cc(O)cc(c1)C[C@H](NC(=O)[C@H](C(C)C)N(C)C(=O)[C@H]1CCN(C(=O)C#CCN(C)C)C1)C(=O)N1CCC[C@H](N1)C(=O)OCC(C)(C)C2 |  |  | IC50 [1]: in the range around 0.55 µM
11 | C=CC(=O)N1CC[C@H](C(=O)N(C)[C@H](C(=O)N[C@H]2Cc3cc(O)cc(c3)-c3ccc4c(c3)c(c(-c3cnccc3COC)n4CC)CC(C)(C)COC(=O)[C@@H]3CCCN(N3)C2=O)C(C)C)C1 |  | in the range around 0.055 µM | IC50 [4]: in the range around 0.55 µM
12 | C=CC(=O)N1CC[C@H](C(=O)N(C)[C@H](C(=O)N[C@H]2Cc3cc(O)cc(c3)-c3ccc4c(c3)c(c(-c3ccccc3CN(C)C)n4CC)CC(C)(C)COC(=O)[C@@H]3CCCN(N3)C2=O)C(C)C)C1 |  | in the range around 0.055 µM | 
13 | C=CC(=O)N1CC[C@H](C(=O)N(C)[C@H](C(=O)N[C@H]2Cc3cc(O)cc(c3)-c3ccc4c(c3)c(c(-c3ccc(C5CCN(C)CC5)nc3)n4CC)CC(C)(C)COC(=O)[C@@H]3CCCN(N3)C2=O)C(C)C)C1 | in the range around 5.5 µM | in the range around 0.55 µM | 
14 | CCn1c(-c2ccccc2CCOC)c2c3cc(ccc31)-c1cc(O)cc(c1)C[C@H](NC(=O)[C@H](C(C)C)N(C)C(=O)[C@H]1CCN(C(=O)C#CCN(C)C)C1)C(=O)N1CCC[C@H](N1)C(=O)OCC(C)(C)C2 | in the range around 5.5 µM | in the range around 0.055 µM | IC50 [1]: in the range around 5.5 µM; IC50 [2]: in the range around 5.5 µM; IC50 [4]: in the range around 0.55 µM
15 | C=CC(=O)N1CC[C@H](C(=O)N(C)[C@H](C(=O)N[C@H]2Cc3cc(O)cc(c3)-c3ccc4c(c3)c(c(-c3cnn(C)c3)n4CC)CC(C)(C)COC(=O)[C@@H]3CCCN(N3)C2=O)C(C)C)C1 | in the range around 5.5 µM | in the range around 0.55 µM | 
16 | C=CC(=O)N1CC[C@H](C(=O)N(C)[C@H](C(=O)N[C@H]2Cc3cc(OC(=O)N(C)CC(=O)O)cc(c3)-c3ccc4c(c3)c(c(-c3ccccc3CCOC)n4CC)CC(C)(C)COC(=O)[C@@H]3CCCN(N3)C2=O)C(C)C)C1 |  | in the range around 0.55 µM | 
